From patent US9211310B2, “Use of a Chinese medicine composition in preparing medicaments for treating secondary prevention of myocardial infarction” (TASLY PHARMACEUTICAL GROUP CO., LTD, priority 2010, dated 2015)

Test system: patients after acute myocardial infarction
Assay: TCM symptom score, total and single (chest pain, chest tightness, short breath, fatigue, palpitation, spontaneous perspiration, pale complexion), same clinical trial
Type: in vivo, human
Design: total score of TCM symptom, Mean / total score of TCM symptom, Min / total score of TCM symptom, Max / total score of TCM symptom, Md / change of total score of TCM symptom, Mean / change of total score of TCM symptom, Max / change of total score of TCM symptom, Md: scale not given here
Conditions: FAS
Excerpt: 3508 patients who were in accordance with the diagnostic standards of AMI for 28 days to 2 years and differentiated as Qi deficiency and blood stagnation syndrome by TCM were studied. 0.5 g Chinese medicine composition prepared by the method of EXAMPLE 1 (Coded as QSYQ) was administrated half an hour after meal, 3 times per day.
They included the overall survival time, angina pectoris score, TCM symptom score and life quality score, where angina pectoris score, TCM symptom score and life quality score were evaluated at randomization, in 1st, 3rd, 6th, 9th, 12th month after treatment and 18th month after follow-up.
The analysis method referred to the angina pectoris score.

[1] = 3 months after treatment-baseline
[2] = 6 months after treatment-baseline

Which results are given for `CC(=O)Oc1ccccc1C(=O)O` [Control group, aspirine]?
total score of TCM symptom, Md (3 months after treatment): 10.00; total score of TCM symptom, Mean (3 months after treatment): 10.90; total score of TCM symptom, Min (3 months after treatment): 0.00; change of fatigue 0, % of patients [1]: (64.74%); change of fatigue 0, number of patients [1]: 1107; change of fatigue 2, % of patients [1]: (24.56%); change of fatigue 2, number of patients [1]: 420; change of fatigue 4, % of patients [1]: (4.09%); change of fatigue 4, number of patients [1]: 70; change of fatigue 6, % of patients [1]: (0.94%); change of fatigue 6, number of patients [1]: 16; change of fatigue −2, % of patients [1]: (5.03%); change of fatigue −2, number of patients [1]: 86; change of fatigue −4, % of patients [1]: (0.53%); change of fatigue −4, number of patients [1]: 9; change of fatigue −6, % of patients [1]: (0.12%); change of fatigue −6, number of patients [1]: 2; change of pale complexion 0, number of patients [1]: 1387; change of pale complexion 0, percent of patients [1]: (81.21%); change of pale complexion 1, number of patients [1]: 259; change of pale complexion 1, percent of patients [1]: (15.16%); change of pale complexion −1, number of patients [1]: 62; change of pale complexion −1, percent of patients [1]: (3.63%); change of palpitation 0, number of patients [1]: 1125; change of palpitation 0, percent of patients [1]: (65.79%); change of palpitation 1, number of patients [1]: 415; change of palpitation 1, percent of patients [1]: (24.27%); change of palpitation 2, number of patients [1]: 43; change of palpitation 2, percent of patients [1]: (2.51%); change of palpitation 3, number of patients [1]: 6; change of palpitation 3, percent of patients [1]: (0.35%); change of palpitation −1, percent of patients [1]: (6.96%); change of palpitation −2, number of patients [1]: 2; change of palpitation −2, percent of patients [1]: (0.12%); change of palpitation −3, number of patients [1]: 0; change of palpitation −3, percent of patients [1]: (0.00%); change of short breath 0, % of patients [1]: (71.29%); change of short breath 0, number of patients [1]: 1219; change of short breath 2, % of patients [1]: (20.47%); change of short breath 2, number of patients [1]: 350; change of short breath 4, % of patients [1]: (2.16%); change of short breath 4, number of patients [1]: 37; change of short breath 6, % of patients [1]: (0.53%); change of short breath 6, number of patients [1]: 9; change of short breath −2, % of patients [1]: (5.44%); change of short breath −2, number of patients [1]: 93; change of short breath −4, % of patients [1]: (0.12%); change of short breath −4, number of patients [1]: 2; change of short breath −6, % of patients [1]: (0.00%); change of short breath −6, number of patients [1]: 0; change of spontaneous perspiration 0, number of patients [1]: 1083; change of spontaneous perspiration 0, percent of patients [1]: (63.37%); change of spontaneous perspiration 1, number of patients [1]: 392; change of spontaneous perspiration 1, percent of patients [1]: (22.94%); change of spontaneous perspiration 2, number of patients [1]: 76; change of spontaneous perspiration 2, percent of patients [1]: (4.45%); change of spontaneous perspiration 3, number of patients [1]: 20; change of spontaneous perspiration 3, percent of patients [1]: (1.17%); change of spontaneous perspiration −1, percent of patients [1]: (7.08%); change of spontaneous perspiration −2, number of patients [1]: 15; change of spontaneous perspiration −2, percent of patients [1]: (0.88%); change of spontaneous perspiration −3, number of patients [1]: 2; change of spontaneous perspiration −3, percent of patients [1]: (0.12%); distribution of total score of TCM symptom: Medium, number of patients (6 months after treatment): 418; distribution of total score of TCM symptom: Medium, percentage of patients (6 months after treatment): (26.79%); distribution of total score of TCM symptom: Mild, number of patients (6 months after treatment): 1133; distribution of total score of TCM symptom: Mild, percentage of patients (6 months after treatment): (72.63%); distribution of total score of TCM symptom: Severe, number of patients (6 months after treatment): 9; distribution of total score of TCM symptom: Severe, percentage of patients (6 months after treatment): (0.58%); fatigue score 0, % of patients (6 months after treatment): (30.27%); fatigue score 0, number of patients (6 months after treatment): 520; fatigue score 2, % of patients (6 months after treatment): (61.00%); fatigue score 2, number of patients (6 months after treatment): 1048; fatigue score 4, % of patients (6 months after treatment): (7.86%); fatigue score 4, number of patients (6 months after treatment): 135; fatigue score 6, % of patients (6 months after treatment): (0.87%); fatigue score 6, number of patients (6 months after treatment): 15; pale complexion score 0, number of patients (6 months after treatment): 871; pale complexion score 0, percent of patients (6 months after treatment): (50.70%); pale complexion score 1, number of patients (6 months after treatment): 657; pale complexion score 1, percent of patients (6 months after treatment): (38.24%); pale complexion score 2, number of patients (6 months after treatment): 179; pale complexion score 2, percent of patients (6 months after treatment): (10.42%); pale complexion score 3, number of patients (6 months after treatment): 11; pale complexion score 3, percent of patients (6 months after treatment): (0.64%); palpitation score 0, number of patients (6 months after treatment): 538; palpitation score 0, percent of patients (6 months after treatment): (31.32%); palpitation score 2, number of patients (6 months after treatment): 906; palpitation score 2, percent of patients (6 months after treatment): (52.74%); palpitation score 4, number of patients (6 months after treatment): 246; palpitation score 4, percent of patients (6 months after treatment): (14.32%); palpitation score 6, number of patients (6 months after treatment): 28; palpitation score 6, percent of patients (6 months after treatment): (1.63%); short breath score 0, % of patients (6 months after treatment): (25.03%); short breath score 0, number of patients (6 months after treatment): 430; short breath score 2, % of patients (6 months after treatment): (0.06%); short breath score 2, number of patients (6 months after treatment): 1; short breath score 3, % of patients (6 months after treatment): (58.09%); short breath score 3, number of patients (6 months after treatment): 998; short breath score 6, % of patients (6 months after treatment): (16.30%); short breath score 6, number of patients (6 months after treatment): 280; short breath score 9, % of patients (6 months after treatment): (0.52%); short breath score 9, number of patients (6 months after treatment): 9; spontaneous perspiration score 0, number of patients (6 months after treatment): 728; spontaneous perspiration score 0, percent of patients (6 months after treatment): (42.37%); spontaneous perspiration score 1, number of patients (6 months after treatment): 833; spontaneous perspiration score 1, percent of patients (6 months after treatment): (48.49%); spontaneous perspiration score 2, number of patients (6 months after treatment): 144; spontaneous perspiration score 2, percent of patients (6 months after treatment): (8.38%); spontaneous perspiration score 3, number of patients (6 months after treatment): 13; spontaneous perspiration score 3, percent of patients (6 months after treatment): (0.76%); total score of TCM symptom, Max (6 months after treatment): 34.00; total score of TCM symptom, Md (6 months after treatment): 9.00; total score of TCM symptom, Mean (6 months after treatment): 10.04; total score of TCM symptom, Min (6 months after treatment): 0.00; change of fatigue 0, % of patients [2]: (56.96%); change of fatigue 0, number of patients [2]: 974; change of fatigue 2, % of patients [2]: (28.54%); change of fatigue 2, number of patients [2]: 488; change of fatigue 4, % of patients [2]: (6.43%); change of fatigue 4, number of patients [2]: 110; change of fatigue 6, % of patients [2]: (1.05%); change of fatigue 6, number of patients [2]: 18; change of fatigue −2, % of patients [2]: (6.32%)
